Assay results taken from BigSolDB 2.1.

CC1(C)COP(=O)(C(Nc2ccccc2)c2ccccc2)OC1 (stereo not drawn)
solubility (mole fraction) (in 1,2-dichloroethane, 278.65 K): 0.0102
solubility (mole fraction) (in 1,2-dichloroethane, 283.65 K): 0.0119
solubility (mole fraction) (in 1,2-dichloroethane, 288.65 K): 0.0143
solubility (mole fraction) (in 1,2-dichloroethane, 293.25 K): 0.0169
solubility (mole fraction) (in 1,2-dichloroethane, 298.15 K): 0.0191
solubility (mole fraction) (in 1,2-dichloroethane, 303.15 K): 0.0229
solubility (mole fraction) (in 1,2-dichloroethane, 308.25 K): 0.0265
solubility (mole fraction) (in 1,2-dichloroethane, 313.15 K): 0.031
solubility (mole fraction) (in 1,2-dichloroethane, 318.15 K): 0.035
solubility (mole fraction) (in 1,2-dichloroethane, 323.15 K): 0.0395
solubility (mole fraction) (in 1,2-dichloroethane, 328.15 K): 0.0437
solubility (mole fraction) (in 1,2-dichloroethane, 333.15 K): 0.0526
solubility (mole fraction) (in 1,4-dioxane, 285.65 K): 0.00609
solubility (mole fraction) (in 1,4-dioxane, 288.65 K): 0.00661
solubility (mole fraction) (in 1,4-dioxane, 293.65 K): 0.00739
solubility (mole fraction) (in 1,4-dioxane, 298.15 K): 0.00887
solubility (mole fraction) (in 1,4-dioxane, 303.15 K): 0.0103
solubility (mole fraction) (in 1,4-dioxane, 308.15 K): 0.0121
solubility (mole fraction) (in 1,4-dioxane, 313.15 K): 0.0139
solubility (mole fraction) (in 1,4-dioxane, 318.15 K): 0.0162
solubility (mole fraction) (in 1,4-dioxane, 323.15 K): 0.019
solubility (mole fraction) (in 1,4-dioxane, 328.15 K): 0.023
solubility (mole fraction) (in THF, 278.65 K): 0.00583
solubility (mole fraction) (in THF, 283.65 K): 0.00648
solubility (mole fraction) (in THF, 288.15 K): 0.00764
solubility (mole fraction) (in THF, 293.25 K): 0.00858
solubility (mole fraction) (in THF, 298.25 K): 0.0102
solubility (mole fraction) (in THF, 303.15 K): 0.0117
solubility (mole fraction) (in THF, 307.95 K): 0.0133
solubility (mole fraction) (in THF, 313.15 K): 0.0152
solubility (mole fraction) (in THF, 318.05 K): 0.0169
solubility (mole fraction) (in THF, 322.65 K): 0.0187
solubility (mole fraction) (in THF, 327.15 K): 0.0215
solubility (mole fraction) (in THF, 332.65 K): 0.0237
solubility (mole fraction) (in acetone, 278.15 K): 0.00244
solubility (mole fraction) (in acetone, 283.75 K): 0.00314
solubility (mole fraction) (in acetone, 288.15 K): 0.00432
solubility (mole fraction) (in acetone, 293.75 K): 0.00578
solubility (mole fraction) (in acetone, 298.65 K): 0.00728
solubility (mole fraction) (in acetone, 302.75 K): 0.00898
solubility (mole fraction) (in acetone, 307.85 K): 0.0112
solubility (mole fraction) (in acetone, 311.75 K): 0.0138
solubility (mole fraction) (in acetone, 317.15 K): 0.0171
solubility (mole fraction) (in acetone, 321.25 K): 0.0186
solubility (mole fraction) (in acetonitrile, 278 K): 0.00557
solubility (mole fraction) (in acetonitrile, 285.65 K): 0.0068
solubility (mole fraction) (in acetonitrile, 288.75 K): 0.00746
solubility (mole fraction) (in acetonitrile, 293.75 K): 0.00887
solubility (mole fraction) (in acetonitrile, 298.25 K): 0.0101
solubility (mole fraction) (in acetonitrile, 303.25 K): 0.0119
solubility (mole fraction) (in acetonitrile, 308.15 K): 0.0142
solubility (mole fraction) (in acetonitrile, 312.75 K): 0.0161
solubility (mole fraction) (in acetonitrile, 317.65 K): 0.0192
solubility (mole fraction) (in acetonitrile, 322.45 K): 0.0218
solubility (mole fraction) (in acetonitrile, 327.75 K): 0.0258
solubility (mole fraction) (in acetonitrile, 335.35 K): 0.0328
solubility (mole fraction) (in benzene, 278.65 K): 0.0011
solubility (mole fraction) (in benzene, 283.65 K): 0.00131
solubility (mole fraction) (in benzene, 288.15 K): 0.00162
solubility (mole fraction) (in benzene, 293.25 K): 0.00201
solubility (mole fraction) (in benzene, 298.25 K): 0.00245
solubility (mole fraction) (in benzene, 303.15 K): 0.00301
solubility (mole fraction) (in benzene, 307.95 K): 0.00381
solubility (mole fraction) (in benzene, 313.15 K): 0.00464
solubility (mole fraction) (in benzene, 318.05 K): 0.00519
solubility (mole fraction) (in benzene, 322.65 K): 0.00634
solubility (mole fraction) (in benzene, 327.15 K): 0.00711
solubility (mole fraction) (in benzene, 332.65 K): 0.0093
solubility (mole fraction) (in benzene, 337.55 K): 0.0107
solubility (mole fraction) (in benzene, 343.15 K): 0.0123
solubility (mole fraction) (in benzene, 347.5 K): 0.0149
solubility (mole fraction) (in chloroform, 278.75 K): 0.0352
solubility (mole fraction) (in chloroform, 283.65 K): 0.0382
solubility (mole fraction) (in chloroform, 288.85 K): 0.0403
solubility (mole fraction) (in chloroform, 293.95 K): 0.042
solubility (mole fraction) (in chloroform, 298.35 K): 0.0444
solubility (mole fraction) (in chloroform, 303.25 K): 0.0471
solubility (mole fraction) (in chloroform, 307.75 K): 0.0492
solubility (mole fraction) (in chloroform, 313.15 K): 0.0527
solubility (mole fraction) (in chloroform, 317.95 K): 0.0548
solubility (mole fraction) (in chloroform, 322.75 K): 0.0591
solubility (mole fraction) (in chloroform, 327.95 K): 0.0646
solubility (mole fraction) (in dichloromethane, 278.65 K): 0.00771
solubility (mole fraction) (in dichloromethane, 283.25 K): 0.00994
solubility (mole fraction) (in dichloromethane, 288.65 K): 0.012
solubility (mole fraction) (in dichloromethane, 293.25 K): 0.0152
solubility (mole fraction) (in dichloromethane, 298.85 K): 0.0189
solubility (mole fraction) (in dichloromethane, 302.95 K): 0.0232
solubility (mole fraction) (in dichloromethane, 308.35 K): 0.0274
solubility (mole fraction) (in dichloromethane, 310.95 K): 0.0317
solubility (mole fraction) (in ethyl acetate, 293.65 K): 0.00232
solubility (mole fraction) (in ethyl acetate, 298.25 K): 0.00278
solubility (mole fraction) (in ethyl acetate, 303.15 K): 0.00385
solubility (mole fraction) (in ethyl acetate, 308.05 K): 0.0046
solubility (mole fraction) (in ethyl acetate, 312.95 K): 0.00561
solubility (mole fraction) (in ethyl acetate, 317.95 K): 0.00671
solubility (mole fraction) (in ethyl acetate, 322.95 K): 0.00781
solubility (mole fraction) (in ethyl acetate, 327.95 K): 0.00913
solubility (mole fraction) (in ethyl acetate, 332.75 K): 0.0097
solubility (mole fraction) (in ethyl acetate, 337.65 K): 0.0111
solubility (mole fraction) (in isopropanol, 278.15 K): 0.0004
solubility (mole fraction) (in isopropanol, 283.15 K): 0.0005
solubility (mole fraction) (in isopropanol, 288.35 K): 0.00066
solubility (mole fraction) (in isopropanol, 293.65 K): 0.0008
solubility (mole fraction) (in isopropanol, 298.15 K): 0.00106
solubility (mole fraction) (in isopropanol, 302.17 K): 0.00128
solubility (mole fraction) (in isopropanol, 307.95 K): 0.00177
solubility (mole fraction) (in isopropanol, 312.55 K): 0.00203
solubility (mole fraction) (in isopropanol, 317.55 K): 0.00254
solubility (mole fraction) (in isopropanol, 321.55 K): 0.00318
solubility (mole fraction) (in isopropanol, 326.65 K): 0.00389
solubility (mole fraction) (in isopropanol, 332.15 K): 0.00485
solubility (mole fraction) (in isopropanol, 337.55 K): 0.00626
solubility (mole fraction) (in isopropanol, 343.15 K): 0.00791
solubility (mole fraction) (in isopropanol, 347.5 K): 0.00958
solubility (mole fraction) (in methanol, 278.15 K): 0.00151
solubility (mole fraction) (in methanol, 283.65 K): 0.002
solubility (mole fraction) (in methanol, 289.15 K): 0.00246
solubility (mole fraction) (in methanol, 293.65 K): 0.00312
solubility (mole fraction) (in methanol, 298.15 K): 0.00367
solubility (mole fraction) (in methanol, 303.15 K): 0.0045
solubility (mole fraction) (in methanol, 307.95 K): 0.00541
solubility (mole fraction) (in methanol, 313.15 K): 0.00662
solubility (mole fraction) (in methanol, 318.15 K): 0.00796
solubility (mole fraction) (in methanol, 323.15 K): 0.00984
solubility (mole fraction) (in tetrachloromethane, 278.15 K): 0.00015
solubility (mole fraction) (in tetrachloromethane, 283.15 K): 0.00019
solubility (mole fraction) (in tetrachloromethane, 288.35 K): 0.00026
solubility (mole fraction) (in tetrachloromethane, 293.65 K): 0.00034
solubility (mole fraction) (in tetrachloromethane, 298.15 K): 0.00044
solubility (mole fraction) (in tetrachloromethane, 302.17 K): 0.00051
solubility (mole fraction) (in tetrachloromethane, 307.95 K): 0.00066
solubility (mole fraction) (in tetrachloromethane, 312.55 K): 0.00085
solubility (mole fraction) (in tetrachloromethane, 317.55 K): 0.00103
solubility (mole fraction) (in tetrachloromethane, 321.55 K): 0.00121
solubility (mole fraction) (in tetrachloromethane, 326.65 K): 0.00143
solubility (mole fraction) (in tetrachloromethane, 332.15 K): 0.00203
solubility (mole fraction) (in tetrachloromethane, 337.15 K): 0.00246
